Measurements: publication PMC5994430, “Mitochondrial Delivery of Phenol Substructure Triggers Mitochondrial Depolarization and Apoptosis of Cancer Cells” (Frontiers in Pharmacology, 2018)

How the values were obtained:
[1] = tested on: A549 cells; assay: Cell viability (neutral red); assay type: cell-based, Human; details: A549; 0.1 μM, 72 h
From the text: (§1) Human colon cancer HT29 cells, colon-derived normal fibroblast CCD-18Co cells, lung cancer A549 cells, normal human bronchial epithelial (immortalized with adenovirus 12-SV40 virus hybrid Ad12SV40) BEAS-2B cells, breast cancer MDA-MB-231 cells, normal breast epithelial MCF10A cells, human osteosarcoma U-2OS cells were purchased from ATCC (Manassas, VA, United States). […] All subjects gave written informed consent in accordance with the Declaration of Helsinki. Cells were maintained in medium supplemented with 10% v/v fetal bovine serum, 1% v/v penicillin-streptomycin, 1% v/v L-glutamine. Morphological analysis was performed with a bright field microscope (Leica Microsystems, Wetzlar, Germany). At least 5 fields/experimental condition were examined.
(§2) LDH activity was measured in the extracellular medium and in the cell lysate: 50 μl of extracellular medium or 5 μl of cell lysate were incubated at 37°C with 5 mM NADH. The reaction was started by adding 20 mM pyruvic acid and was monitored for 6 min, measuring absorbance at 340 nm using a Synergy HT Multi-Detection Microplate Reader (Bio-Tek Instruments, Winoosky, MT, United States). […] Both intracellular and extracellular enzyme activities were expressed as μmol NADH oxidized/min/dish. The results were expressed as percentage of extracellular LDH versus total (intracellular plus extracellular) LDH. […] The absorbance of untreated cells was considered as 100% viability; the results were expressed as percentage of viable cells versus untreated cells. IC50 was calculated with the CompuSyn software^1.

[2] = tested on: BEAS-2B cells; assay: Cell viability (neutral red); assay type: cell-based, Human; details: BEAS-2B; 0.1 μM, 72 h
From the text: as §1, §2

With C[P+](c1ccccc1)(c1ccccc1)c1ccccc1.[Cl-] [TPMP, methyltriphenylphosphonium chloride, reference compound] as the compound, how does the cell viability [1] read?
Its cell viability is “did not reduce viability”.

And the cell viability [2]?
Its cell viability is “did not reduce viability”.
